Tested on: subject having diabetes with A1C as high as 13
Test: blood A1C level of a diabetic subject, astaxanthin alone and then the daily dose (Example 4)
Assay type: in vivo, human
Conditions: one subject, 12-24 mg of astaxanthin a day
From the text: They begin taking softgel capsules of the daily dose of Example 1 and after 6 weeks their blood A1C level is 5.6 with no changes in diet or habits.

Compound CC1=C(/C=C/C(C)=C/C=C/C(C)=C/C=C/C=C(C)/C=C/C=C(C)/C=C/C2=C(C)C(=O)C(O)CC2(C)C)C(C)(C)CC(O)C1=O (stereo not drawn) [astaxanthin, 3,3′-dihydroxy-β-carotene-4,4′-dione] has a blood A1C levels of at most 13%.

Source: US11696593B2, “Astaxanthin nutritional compositions and uses” (Bioscience Formulators, LLC, priority 2018, dated 2023)
